The source of these data is ChEMBL document CHEMBL1158671, “Microbial transformations of hypolipemic E-guggulsterone” (J Nat Prod, 1998).

For one assay, the system named is NCI-H226. In words: Cytotoxicity against human NCI-H226 cells. It is filed as functional, cell-based.
A further assay relates to Shigella boydii. In words: Antibacterial activity against Shigella boydii. It is filed as functional, organism-based.
For a further assay, the system named is Pseudomonas aeruginosa. The experiment in a line: Antibacterial activity against Pseudomonas aeruginosa. It counts as functional, organism-based.
The next assay has as its system Escherichia coli. The experiment in a line: Antibacterial activity against Escherichia coli. It is filed as functional, organism-based.
Assay [1] concerns Corynebacterium diphtheriae. In words: Antibacterial activity against Corynebacterium diphtheriae. It is filed as functional, organism-based.

Structures are written as SMILES. Active and inactive are the calls of the source. No cut-off for these calls is given here.

As to `C/C=C1/C(=O)C[C@H]2[C@@H]3CCC4=CC(=O)CC[C@]4(C)[C@H]3CC[C@]12C`, in the assay on NCI-H226, the outcome was Active. Moreover, the outcome (in the assay with Shigella boydii; in the assay with Pseudomonas aeruginosa; in the assay with Escherichia coli; in assay [1]) was inactive.

Consider `C/C=C1/C(=O)C[C@H]2[C@@H]3[C@@H](O)CC4=CC(=O)CC[C@]4(C)[C@H]3CC[C@]12C`, for which the result (in the assay on Shigella boydii; in the assay on Pseudomonas aeruginosa; in the assay on Escherichia coli; in assay [1]) was Active.
